Data published in ChEMBL document CHEMBL1201862, “PubChem BioAssay data set” (2004).
Calls of active or inactive are those of the source.

Tests used:
[1] = molecular target: T1, Sentrin-specific protease 8 (Homo sapiens, UniProt Q96LD8); format: functional
T1 sequence (Q96LD8 whole entry): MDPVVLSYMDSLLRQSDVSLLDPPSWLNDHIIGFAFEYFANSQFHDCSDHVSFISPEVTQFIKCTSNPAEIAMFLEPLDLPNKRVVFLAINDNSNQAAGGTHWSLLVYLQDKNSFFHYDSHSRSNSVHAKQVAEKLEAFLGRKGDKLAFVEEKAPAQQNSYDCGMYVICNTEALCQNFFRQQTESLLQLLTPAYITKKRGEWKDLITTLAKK

[2] = molecular target: T1, Sentrin-specific protease 8; format: functional; remark: listed apart in the source
[3] = Luminescence Cell-Based Dose Retest to Confirm Inhibitors of Cancer Stem Cells. [Related pubchem assays (depositor defined):AID2717, AID2721]; format: functional; conditions: Homo sapiens
Beta-galactosidase = Beta-galactosidase (Escherichia coli, UniProt Q8VNN2); assay: PubChem AID 485352; format: functional
[4] = molecular target: Beta-2 adrenergic receptor (Homo sapiens, UniProt P07550); assay: beta2AR agonists driving receptor internalization, dose response, cell-based, FAP fluorogen, flow cytometry, cherry pick 1 (AID 588763); format: functional
[5] = growth suppression of PTEN-null colon cells, dose response, cell-based, HCT116 PTEN knockout (AID 1047); format: functional;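 note: HCT116 colon tumor cells with PTEN knocked out; cells exposed to compound for 60 hours before readout; potency for loss of cell viability measured by luminescence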
[6] = growth suppression of beta-catenin-knockout colon cells, dose response, cell-based, HCT116, human colon tumor (AID 1045); format: functional;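 note: HCT116 colon tumor cells with beta catenin knocked out; cells exposed to compound for 60 hours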
Melanocortin receptor 4 [7] = molecular target: T2, Melanocortin receptor 4 (Homo sapiens, UniProt P32245); assay: MC4R antagonist potency on cAMP, dose response, cell-based, TR-FRET, biased antagonists (AID 602298); format: functional;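 note: antagonist potency against agonist-stimulated cAMP production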
[8] = nonselective inhibitors of cellular cAMP signaling, dose response, counter-screen for MC4R biased antagonist project, cell-based, TR-FRET cAMP detection (AID 602305); format: functional;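 note: U2OS cells stimulated with forskolin near its EC80 as the cAMP inducer; potency is for inhibition of forskolin-stimulated cAMP signaling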
[9] = molecular target: T3, Type-1 angiotensin II receptor (Homo sapiens, UniProt P30556); assay: AT1 receptor antagonists, dose response, selectivity assay for APJ receptor antagonist project, cell-based, uHTS hits (AID 463214); format: functional;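 note: antagonist potency against angiotensin II stimulated AT1 response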
T3 sequence (P30556 whole entry): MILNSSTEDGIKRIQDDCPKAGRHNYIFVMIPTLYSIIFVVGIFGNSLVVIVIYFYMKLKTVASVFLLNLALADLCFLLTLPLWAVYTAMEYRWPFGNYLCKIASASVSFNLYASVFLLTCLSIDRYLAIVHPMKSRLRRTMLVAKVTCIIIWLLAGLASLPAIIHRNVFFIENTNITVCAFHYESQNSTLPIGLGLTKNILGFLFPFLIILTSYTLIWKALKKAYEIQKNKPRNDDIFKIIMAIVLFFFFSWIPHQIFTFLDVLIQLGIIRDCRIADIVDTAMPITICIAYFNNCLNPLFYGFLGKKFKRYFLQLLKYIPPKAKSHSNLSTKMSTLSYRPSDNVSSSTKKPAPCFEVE

[10] = molecular target: T4, Probable nicotinate-nucleotide adenylyltransferase (Staphylococcus aureus (strain N315), UniProt P65502); format: functional, Staphylococcus aureus subsp. aureus N315; conditions: read-out: IC50_Mean;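 for IC50 Mean: confirmatory dose-response retesting of NadD inhibitor hits first found in an ultra-high-throughput screen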
[11] = molecular target: T4, Probable nicotinate-nucleotide adenylyltransferase; format: functional, Staphylococcus aureus subsp. aureus N315
[12] = molecular target: T5, DNA repair and recombination protein RAD54-like (Homo sapiens, UniProt Q92698); assay: inhibitors of human RAD54 branch migration, confirmation, biochemical, fluorescence, cherry-picked samples, dose series (AID 651657); format: functional
T5 sequence (Q92698 whole entry): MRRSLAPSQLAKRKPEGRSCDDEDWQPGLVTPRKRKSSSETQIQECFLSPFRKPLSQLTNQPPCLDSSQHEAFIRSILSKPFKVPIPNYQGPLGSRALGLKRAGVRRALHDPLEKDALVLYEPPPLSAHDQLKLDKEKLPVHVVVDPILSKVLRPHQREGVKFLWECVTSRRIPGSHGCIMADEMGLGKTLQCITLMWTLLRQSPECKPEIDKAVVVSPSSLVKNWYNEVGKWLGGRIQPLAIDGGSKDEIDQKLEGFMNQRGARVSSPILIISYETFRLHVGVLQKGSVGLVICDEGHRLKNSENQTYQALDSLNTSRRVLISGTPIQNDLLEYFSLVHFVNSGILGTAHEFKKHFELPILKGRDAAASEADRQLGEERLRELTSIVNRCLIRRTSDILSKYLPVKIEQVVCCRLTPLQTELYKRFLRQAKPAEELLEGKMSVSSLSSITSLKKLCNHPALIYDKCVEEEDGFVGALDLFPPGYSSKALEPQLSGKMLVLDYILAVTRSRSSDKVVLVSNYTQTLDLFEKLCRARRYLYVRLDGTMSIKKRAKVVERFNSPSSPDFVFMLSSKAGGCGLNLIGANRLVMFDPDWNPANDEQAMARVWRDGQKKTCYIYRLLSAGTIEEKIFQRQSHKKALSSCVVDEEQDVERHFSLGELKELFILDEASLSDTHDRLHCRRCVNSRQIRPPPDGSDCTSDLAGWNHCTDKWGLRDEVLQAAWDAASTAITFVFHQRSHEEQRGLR

[13] = miR-122 activators in hepatoma reporter cells, dose response, cell-based, Huh7 psiCHECK-miR122, Renilla luciferase, cherry-picked (AID 651956); format: functional;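 note: huh7 hepatoma cells stably carrying a psiCHECK-2 miR-122 sensor plasmid; renilla luciferase signal reporting endogenous miR-122 activity after 48 h compound exposure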
[14] = molecular target: T6, Rac GTPase-activating protein 1 (Homo sapiens, UniProt Q9H0H5); assay: MgcRacGAP GTPase-activating activity inhibitors, confirmation, biochemical, ADP Hunter fluorescence, primary and confirmatory (AID 624330); format: functional
T6 sequence (Q9H0H5 whole entry): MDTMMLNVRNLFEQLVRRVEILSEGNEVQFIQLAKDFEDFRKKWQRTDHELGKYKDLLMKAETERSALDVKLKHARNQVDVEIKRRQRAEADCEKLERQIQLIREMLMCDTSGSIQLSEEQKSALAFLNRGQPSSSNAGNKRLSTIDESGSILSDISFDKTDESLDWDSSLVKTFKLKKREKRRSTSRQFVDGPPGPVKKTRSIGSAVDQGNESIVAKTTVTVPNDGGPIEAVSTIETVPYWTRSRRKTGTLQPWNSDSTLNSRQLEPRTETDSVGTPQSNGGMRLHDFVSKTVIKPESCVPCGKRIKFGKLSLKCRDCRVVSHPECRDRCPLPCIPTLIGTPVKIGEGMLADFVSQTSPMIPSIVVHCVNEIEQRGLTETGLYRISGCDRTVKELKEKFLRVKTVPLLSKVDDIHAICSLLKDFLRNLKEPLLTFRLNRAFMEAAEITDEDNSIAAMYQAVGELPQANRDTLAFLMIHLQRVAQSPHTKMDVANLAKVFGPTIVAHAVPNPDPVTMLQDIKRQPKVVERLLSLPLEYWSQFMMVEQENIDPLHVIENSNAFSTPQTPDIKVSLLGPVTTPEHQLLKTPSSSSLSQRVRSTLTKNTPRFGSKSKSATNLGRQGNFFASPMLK

[15] = molecular target: T7, Small ubiquitin-related modifier 1 (Homo sapiens, UniProt P63165); assay: inhibitors of SUMO1 peptide binding, dose response, biochemical, fluorescence polarization, uHTS hits (AID 624382); format: functional; conditions: read-out: IC50_Mean
[16] = molecular target: T7, Small ubiquitin-related modifier 1; assay: inhibitors of SUMO1 partner interactions, dose response, biochemical, FRET (AID 624383); format: functional; conditions: read-out: IC50_Mean
Melanocortin receptor 4 [17] = molecular target: T2, Melanocortin receptor 4; format: functional, cell-based
Paired box protein Pax-8 = Paired box protein Pax-8 (Homo sapiens, UniProt Q06710); assay: inhibitors of PAX8-driven TPO luciferase reporter, dose response, RMG-I cells, cherry-pick (AID 687027); format: functional, cell-based;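 note: luciferase reporter driven by Pax8 target thyroperoxidase promoter measured by SteadyGlo luminescence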
[18] = molecular target: Ras and Rab interactor 1/Tyrosine-protein kinase ABL1 (Homo sapiens, UniProt P00519+Q13671); format: functional;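 note: biochemical TR-FRET dose-response test measuring inhibition of binding between Rin1 and Abl proteins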
[19] = inhibitors of intracellular T. cruzi replication, confirmation, NIH3T3 host cells, beta-gal luminescence (AID 2044); format: functional, cell-based;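 note: intracellular parasites grown in NIH/3T3 mouse fibroblasts as host cells; luminescent beta-galactosidase reporter signal from transgenic T. cruzi replicating inside host cells; inhibitors lower the luminescence signal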
[20] = HeLa cell cytotoxicity, dose response, cytotoxicity control for MgcRacGAP inhibitor project (AID 624300); format: functional
[21] = cytotoxicity toward NIH3T3 fibroblasts, dose response, counter-screen, cell-based, ATP luminescence, mouse fibroblasts (AID 2010); format: functional;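 note: cells exposed to compound for about 90 hours before reading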

T2 sequence (P32245 whole entry): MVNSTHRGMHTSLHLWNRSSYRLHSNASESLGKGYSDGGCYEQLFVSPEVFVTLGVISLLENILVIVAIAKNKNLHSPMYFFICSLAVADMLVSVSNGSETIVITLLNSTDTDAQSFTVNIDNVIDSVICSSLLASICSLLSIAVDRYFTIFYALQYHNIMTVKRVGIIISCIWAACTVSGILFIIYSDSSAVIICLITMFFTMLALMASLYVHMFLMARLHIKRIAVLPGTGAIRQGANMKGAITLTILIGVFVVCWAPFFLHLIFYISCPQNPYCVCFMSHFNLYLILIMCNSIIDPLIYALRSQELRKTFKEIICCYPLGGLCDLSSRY
T4 sequence (P65502 whole entry): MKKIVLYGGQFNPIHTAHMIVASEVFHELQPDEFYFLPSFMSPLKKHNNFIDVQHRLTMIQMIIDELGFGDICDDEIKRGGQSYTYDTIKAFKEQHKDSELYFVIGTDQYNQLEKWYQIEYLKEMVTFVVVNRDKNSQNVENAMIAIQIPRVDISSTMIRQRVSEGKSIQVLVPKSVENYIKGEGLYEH
Sequence of Ras and Rab interactor 1/Tyrosine-protein kinase ABL1 (P00519 whole entry): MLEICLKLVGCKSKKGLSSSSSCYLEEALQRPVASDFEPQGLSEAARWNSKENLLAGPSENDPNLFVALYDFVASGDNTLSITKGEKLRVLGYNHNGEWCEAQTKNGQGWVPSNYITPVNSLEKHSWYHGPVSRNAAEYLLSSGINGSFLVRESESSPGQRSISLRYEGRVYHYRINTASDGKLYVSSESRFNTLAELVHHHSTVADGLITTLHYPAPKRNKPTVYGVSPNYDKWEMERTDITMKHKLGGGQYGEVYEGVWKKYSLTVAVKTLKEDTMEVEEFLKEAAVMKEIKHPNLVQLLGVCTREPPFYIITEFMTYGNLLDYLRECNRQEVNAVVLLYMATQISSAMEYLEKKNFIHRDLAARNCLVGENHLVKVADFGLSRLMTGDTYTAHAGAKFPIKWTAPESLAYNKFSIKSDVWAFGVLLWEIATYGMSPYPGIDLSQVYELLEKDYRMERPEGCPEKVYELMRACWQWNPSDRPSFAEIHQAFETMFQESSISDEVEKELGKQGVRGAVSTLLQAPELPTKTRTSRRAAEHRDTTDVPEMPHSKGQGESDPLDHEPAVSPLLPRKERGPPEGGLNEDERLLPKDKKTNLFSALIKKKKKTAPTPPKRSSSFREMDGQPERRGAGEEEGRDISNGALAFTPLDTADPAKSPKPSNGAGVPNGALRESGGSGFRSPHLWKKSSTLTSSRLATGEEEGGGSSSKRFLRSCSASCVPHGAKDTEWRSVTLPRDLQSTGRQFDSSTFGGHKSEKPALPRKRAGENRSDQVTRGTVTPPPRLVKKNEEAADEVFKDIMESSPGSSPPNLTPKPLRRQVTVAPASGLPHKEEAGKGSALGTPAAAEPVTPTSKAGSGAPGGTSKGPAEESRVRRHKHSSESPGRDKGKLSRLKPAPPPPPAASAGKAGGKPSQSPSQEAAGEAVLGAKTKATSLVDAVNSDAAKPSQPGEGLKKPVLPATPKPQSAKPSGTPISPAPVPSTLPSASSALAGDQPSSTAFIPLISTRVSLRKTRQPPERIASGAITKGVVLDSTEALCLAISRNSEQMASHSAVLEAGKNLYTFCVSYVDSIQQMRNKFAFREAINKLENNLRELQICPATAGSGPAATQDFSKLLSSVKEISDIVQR
Sequence of Ras and Rab interactor 1/Tyrosine-protein kinase ABL1 (Q13671 whole entry): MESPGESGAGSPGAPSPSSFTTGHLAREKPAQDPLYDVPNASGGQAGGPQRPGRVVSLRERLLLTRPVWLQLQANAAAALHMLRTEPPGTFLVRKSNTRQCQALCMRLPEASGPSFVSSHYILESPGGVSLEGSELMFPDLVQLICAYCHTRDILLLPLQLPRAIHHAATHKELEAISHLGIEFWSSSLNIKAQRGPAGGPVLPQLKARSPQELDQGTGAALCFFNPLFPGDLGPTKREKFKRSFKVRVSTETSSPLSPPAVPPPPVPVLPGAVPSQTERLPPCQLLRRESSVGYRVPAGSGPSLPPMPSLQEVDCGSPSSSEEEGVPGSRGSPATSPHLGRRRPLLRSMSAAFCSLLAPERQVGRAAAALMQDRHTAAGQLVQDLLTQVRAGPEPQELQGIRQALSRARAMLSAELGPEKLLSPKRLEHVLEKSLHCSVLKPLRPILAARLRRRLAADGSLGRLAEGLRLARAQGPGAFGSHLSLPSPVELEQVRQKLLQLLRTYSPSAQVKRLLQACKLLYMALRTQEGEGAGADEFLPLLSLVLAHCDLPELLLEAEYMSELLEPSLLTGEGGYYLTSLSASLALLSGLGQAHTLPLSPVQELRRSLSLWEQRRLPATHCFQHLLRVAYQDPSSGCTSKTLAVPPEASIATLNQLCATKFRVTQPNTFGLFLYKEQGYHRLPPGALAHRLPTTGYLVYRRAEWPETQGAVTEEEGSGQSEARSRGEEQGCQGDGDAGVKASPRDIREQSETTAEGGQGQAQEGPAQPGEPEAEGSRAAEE
T7 sequence (P63165 whole entry): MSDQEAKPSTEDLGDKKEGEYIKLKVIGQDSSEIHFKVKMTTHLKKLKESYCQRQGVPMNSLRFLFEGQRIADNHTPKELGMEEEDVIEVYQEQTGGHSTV
Sequence of Paired box protein Pax-8 (Q06710 whole entry): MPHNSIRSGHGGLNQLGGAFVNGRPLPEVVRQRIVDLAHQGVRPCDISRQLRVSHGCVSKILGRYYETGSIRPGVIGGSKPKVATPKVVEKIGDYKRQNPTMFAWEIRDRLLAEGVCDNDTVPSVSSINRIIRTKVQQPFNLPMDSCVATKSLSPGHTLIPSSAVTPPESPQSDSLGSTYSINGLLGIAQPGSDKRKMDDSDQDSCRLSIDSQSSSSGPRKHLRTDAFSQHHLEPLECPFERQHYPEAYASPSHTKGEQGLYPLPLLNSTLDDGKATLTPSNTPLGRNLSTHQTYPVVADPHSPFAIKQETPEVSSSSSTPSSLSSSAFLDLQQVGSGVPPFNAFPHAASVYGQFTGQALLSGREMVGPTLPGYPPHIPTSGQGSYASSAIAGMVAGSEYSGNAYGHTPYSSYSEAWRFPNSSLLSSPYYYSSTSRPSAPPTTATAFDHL
Sequence of Beta-galactosidase (Q8VNN2 whole entry): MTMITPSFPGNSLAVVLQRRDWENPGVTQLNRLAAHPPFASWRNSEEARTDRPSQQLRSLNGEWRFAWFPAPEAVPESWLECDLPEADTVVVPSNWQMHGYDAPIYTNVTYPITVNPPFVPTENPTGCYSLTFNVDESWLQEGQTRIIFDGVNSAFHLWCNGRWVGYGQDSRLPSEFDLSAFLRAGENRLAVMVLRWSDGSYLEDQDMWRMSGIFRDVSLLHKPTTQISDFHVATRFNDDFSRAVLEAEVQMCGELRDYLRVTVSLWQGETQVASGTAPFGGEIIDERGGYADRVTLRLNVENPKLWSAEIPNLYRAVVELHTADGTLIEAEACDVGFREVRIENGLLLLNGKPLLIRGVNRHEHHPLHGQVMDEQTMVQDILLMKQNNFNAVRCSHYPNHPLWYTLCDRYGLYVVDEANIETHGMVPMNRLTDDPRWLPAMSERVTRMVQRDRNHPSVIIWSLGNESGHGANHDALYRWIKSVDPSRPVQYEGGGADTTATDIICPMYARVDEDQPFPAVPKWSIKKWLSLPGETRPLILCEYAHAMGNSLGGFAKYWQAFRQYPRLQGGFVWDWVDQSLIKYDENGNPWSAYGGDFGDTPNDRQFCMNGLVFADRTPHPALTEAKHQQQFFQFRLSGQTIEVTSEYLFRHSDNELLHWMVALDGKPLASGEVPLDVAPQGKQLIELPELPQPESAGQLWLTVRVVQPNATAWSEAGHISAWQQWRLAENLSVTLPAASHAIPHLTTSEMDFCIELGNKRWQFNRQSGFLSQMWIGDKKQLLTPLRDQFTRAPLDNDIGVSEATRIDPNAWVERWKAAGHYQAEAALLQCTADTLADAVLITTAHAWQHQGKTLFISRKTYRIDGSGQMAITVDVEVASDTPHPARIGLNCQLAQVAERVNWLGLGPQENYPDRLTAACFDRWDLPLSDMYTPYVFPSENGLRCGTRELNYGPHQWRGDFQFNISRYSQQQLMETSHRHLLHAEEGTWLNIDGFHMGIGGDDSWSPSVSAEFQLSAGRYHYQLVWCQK
Sequence of Beta-2 adrenergic receptor (P07550 whole entry): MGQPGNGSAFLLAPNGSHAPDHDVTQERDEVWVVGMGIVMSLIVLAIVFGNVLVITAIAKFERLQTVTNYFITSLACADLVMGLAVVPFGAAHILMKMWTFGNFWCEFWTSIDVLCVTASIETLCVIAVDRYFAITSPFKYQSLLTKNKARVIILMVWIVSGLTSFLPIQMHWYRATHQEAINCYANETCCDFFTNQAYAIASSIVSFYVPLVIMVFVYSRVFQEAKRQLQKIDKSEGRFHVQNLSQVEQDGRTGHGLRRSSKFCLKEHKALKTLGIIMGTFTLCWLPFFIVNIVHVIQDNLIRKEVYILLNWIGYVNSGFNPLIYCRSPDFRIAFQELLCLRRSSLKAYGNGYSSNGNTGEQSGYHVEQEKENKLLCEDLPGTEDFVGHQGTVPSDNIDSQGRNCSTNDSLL

O=C(CCCn1c(=O)oc2ccccc21)N1CCc2ccccc2C1
IC50 [1]: > 100 µM (inactive) | IC50 [2]: 8 µM (active)

CC(C)Cc1nc2oc3c(Cl)ncnc3c2c2c1CCC2
AC50 [3]: 4.61 µM (active) | EC50 (Beta-galactosidase): > 40 µM (inactive) | EC50 [4]: 11.8 µM (inactive) | EC50 [5]: 18 µM (active) | EC50 [6]: 8.07 µM (active) | IC50 (Melanocortin receptor 4 [7]): > 64.6 µM (inactive) | IC50 [8]: > 64.6 µM (inactive) | IC50 [9]: > 40 µM (not active)

C#CCN(C[C@H]1[C@H](OC(=O)NCc2ccccc2)[C@H](OC(=O)NCc2ccccc2)C[C@H]2C(=O)N(c3ccccc3)C(=O)[C@@H]12)S(=O)(=O)c1ccc(C)cc1
IC50 [10]: 42.3 µM (active) | IC50 [11]: 16.5 µM (active)

COc1cccc(-c2nc(NCCN3CCOCC3)c3ccccc3n2)c1O
AC50 [12]: 8.35 µM (active) | AC50 [13]: 51.4 µM (active)

COc1cccc(-c2ccc3c(c2)O[C@H](CN(C)C(=O)C2CCOCC2)[C@H](C)CN([C@H](C)CO)S3(=O)=O)c1
AC50 [13]: 15.8 µM (active)

NNc1ccc([N+](=O)[O-])c2n[nH]c(O)c12
IC50 [14]: 76.8 µM (active) | IC50 [15]: > 66.6 µM (inactive) | IC50 [16]: 5.04 µM (active)

COc1ccc(C(NC(=O)C2CCN(CCOc3ccc(Cl)cc3Cl)CC2)c2ccccc2C)cn1 (configuration not stated)
EC50 (Melanocortin receptor 4 [17]): > 89.2 µM (inactive)

Cc1cccc(N2CCN(C(=O)c3ccc4c(c3)NC(=O)C(CSCc3cccc(F)c3)N4)CC2C)c1 (configuration not stated)
IC50 [10]: 13.8 µM (active) | IC50 [11]: 3.09 µM (active)

O=C1NC[C@@H](CCCCN2C[C@H](Cc3ccc(O)cc3)N(CCC3CCCCC3)C(=O)C2=O)N(CC2CCCCC2)C1=O
IC50 [10]: 37.2 µM (active) | IC50 [11]: 8.3 µM (active)

CCN1CCN(Cc2ccc(NC(=O)c3cc(NC(=O)C(=O)c4c[nH]c5ccccc45)cc(OC)c3)cc2C(F)(F)F)CC1
AC50 (Paired box protein Pax-8): 8.98 µM (active) | EC50 (Melanocortin receptor 4 [17]): > 89.2 µM (inactive)

COc1ccc(/C=N/NC(=O)Cn2c(Cc3ccc(OC)c(OC)c3)nc3ccccc32)cc1
IC50 [18]: > 73.4 µM (inactive)

CCN1CCC(O)(/C=C/c2ccc(C(C)C)cc2)C(C(=O)/C=C/c2ccc(C(C)C)cc2)C1 (configuration not stated)
EC50 (Melanocortin receptor 4 [17]): > 89.2 µM (inactive)

O=C(Cc1ccc(NC(=O)C2CCN(C(=O)C3CCCCC3)CC2)cc1)Nc1ccc(C(=O)N2CCOCC2)cc1
IC50 [18]: 5.51 µM (active)

COc1ccc(Br)cc1CNCCc1cccc(Cl)c1
EC50 [19]: 1.12 µM (active) | CC50 [20]: 100 µM (active) | IC50 [14]: 130 µM (active) | EC50 [21]: > 60 µM (not active)
